Entries after “also recorded” stand apart in the source; their conditions may differ. Starred links: 1 amine or outer side, 2 acyl side, 3 side chain; linkers in the order of their positions; H or OH if unused. Non-standard residues stand in square brackets, D forms with d. No end group written: not given here. (CH2)6 = -(CH2)6- hydrocarbon linking residues between repeats, C(CCC[*:2])CC[*:1]
The molecules below were run on epithelial cell migration (assay: In vitro scratch assay, truncation and scrambled peptide series (FIG. 1; cell line not given)). Settings: 80 μM; FIG. 1; vs untreated control.
Type: cell-based
Procedure: Peptides were tested for efficacy in accelerating scratch closure rates. Negative controls included untreated and multiple scrambled peptide (SP) controls. All peptides were tested at 80 μM concentration. All experiments were performed in triplicate with three technical replicates for each experiment. Statistical significance was determined by one-way ANOYA with Dunnett's post-hoc test. *p<0.05; **p<0.01; ***p<0.001. Relative closure=(% closure of treated sample)/(% closure of Untreated control).
In Vitro Scratch Assay. HCE, HCLE, HELA and MCF-7 cells were cultured in a 24-well plate at 2.5×10^5 (cells/well) seeding density, and were grown to confluence on a 24-well plate. Subsequently, a straight-line scratch mark was made with a sterile P200 pipette tip. The cells were then washed twice with phosphate-buffered saline (PBS) to remove cellular debris. Wounded areas were then treated with the peptides provided in Table 5 at various concentrations in standard medium with reduced serum conditions (0.5% FBS in MEM medium (HCE), growth factor-free K-SFM media (HCLE), 1% FBS in DMEM medium (HeLa) and 0.5% FBS in RPMI 1640 medium (MCF-7)). Scratches were photographed microscopically at 4× magnification (Image Express Micro, Molecular Devices, San Jose, Calif.) every hour over the course of the experiment. The wound area at each time-point was measured using Image J software (Image J 1.47v, NIH, Thornwood, Bethesda, Md.). Relative wound closure was calculated by dividing the closure of the treated wound by that of the untreated wound. For all the experiments including truncated histatin-5, a final concentration of 80 μM was used. PD98059 (Calbiochem, San Diego, Calif.) at final concentration of 50 μM was used as a specific inhibitor of MEK. PD98059 was added to cell cultures at the same time as histatin peptides.
To identify the residues of Hst5 required for epithelial cell migration, serial truncation experiments were performed, progressively deleting residues in Hst5. […] All peptides were tested at 80 μM. […] Thus, the SHRGY (SEQ ID NO:2) sequence is necessary and sufficient to promote epithelial migration rates in in vitro scratch assays.
“SHRGY-(CH2)6-SHRGY-(CH2)6-SHRGY-(CH2)6-SHRGY (SHRGY[(CH2)6]SHRGY[(CH2)6]SHRGY[(CH2)6]SHRGY) [multimer of SHRGY composed of 4 repeating units]” was tested, and the “scratch (wound) closure rates, relative closure” value (“scratch … relative closure” below) was “significant increases in scratch closure rates”.
With DSHAKRHHGYKRKFHEKHHSHRG [Hst5(1-23)] the “scratch … relative closure” value was “no significant increase in wound closure rates”.
With RYHGS [SP4] the “scratch … relative closure” value was “did not significantly increase wound closure rates”.
With “DSHAKRHIHGYKRKFHEKHHSH (DSHAKRHHGYKRKFHEKHHSH) [Hst5(1-21)]” the “scratch … relative closure” value was “no significant increase in wound closure rates”.
For DSHAKRHHGYKRKFHEKHHSHR [Hst5(1-22)], the “scratch … relative closure” value was “no significant increase in wound closure rates”.
With “c-SHRGY: cyclized SHRGY peptide, prepared using a linker/spacer composed of 6-(Fmoc-amino)caproic acid, 6-(Fmoc-amino)hexanoic acid (cyclo(SHRGY); not fully specified (C-terminus))” the “scratch … relative closure” value was “significant increases in scratch closure rates”.
With DSHAKRHHGYKRKFHEKHH [Hst5(1-19)] the “scratch … relative closure” value was “no significant increase in wound closure rates”.
With DSHAKRHHGYKRKF [Hst5(1-14)] the “scratch … relative closure” value was “no significant increase in wound closure rates”.
In the case of RHHGYKRKFHEKHHSHRGY [Hst5(5-24)], the “scratch … relative closure” value is reported as “significant increases in scratch closure rates”.
For RYSGH [SP3], the “scratch … relative closure” value was “did not significantly increase wound closure rates”.
For TNQQK [SP5], the “scratch … relative closure” value was “no significant improvement in the wound closure rates”.
With HSHKEGHHYKRFKRKHHADSHRGY [SP2] the “scratch … relative closure” value was “significant increases in scratch closure rates”.

Same assay, conditions: PD98059 50 μM added at the same time as Hst5
For `COc1cccc(-c2cc(=O)c3ccccc3o2)c1N` [PD98059], the “effect of MEK inhibitor co-treatment on Hst5-promoted wound closure” value was “eliminated the effects of Hst5 on promoting wound closure”.

Same assay, conditions: summary statement: immortalized human corneal epithelial cells, immortalized human corneal limbal epithelial cells, HeLa human cells, mouse corneal wounding models
SHDGY [pentapeptide] was tested, and the epithelial migration was “significantly enhance epithelial migration”.

These molecules were tested on p-ERK1/2 (assay: Immunofluorescence imaging of p-ERK1/2 in scratched HCE monolayer). Settings: 80 μM, 45 minutes.
Type: cell-based, Human
Procedure: Immunofluorescence Imaging. HCE cells were seeded in 8-well chamber slide at 9×10^4 (cells/well) seeding density, and allowed to incubate to form a confluent monolayer. Subsequently, a straight-line scratch mark was made with a sterile P10 pipette tip. The cells were then washed with media to remove cellular debris. Wounded areas were subsequently left untreated or treated with Hst5, SP1 or SP2 at 80 μM concentrations in MEM media with 0.5% FBS for 45 minutes. Cells were then fixed with 4% paraformaldehyde for 30 minutes and permeabilized with 0.1% Triton X-100 for 5 minutes. After washing with PBS, cells were incubated at room temperature for 30 minutes with 5% bovine serum albumin (BSA) and 5% normal goat serum in PBS. Cells were subsequently incubated with primary antibodies diluted in 1% BSA against p-ERK1/2 (1:200) (Cell Signaling, Danver, Mass.) at 4° C. for 16 hours. After three washings with PBS, cells were incubated with fluorescein isothiocyanate-conjugated sheep anti-rabbit IgG antibody (BD Biosciences, San Jose, Calif.) (1:500) diluted in 1% BSA at room temperature for 60 minutes. After extensive washing with PBS, the cells were then stained with 4′,6-diamidino-2-phenylindole (DAPI; (Roche, Mannheim, GE) for 2 minutes for nuclear staining. The cells were mounted in Fluoro gel with Tris buffer (Electron Microscopy Sciences, Hattfield, Pa.) and observed under a confocal microscope (Zeiss LSM 710 Confocal Microscope, Oberkochen, Germany) using a 10× objective.
The level of activation/phosphorylation of ERK with and without wounding and with and without Hst5 application were investigated to determine whether the cellular signaling pathways underpinning the pro-migratory effects of Hst5 were similar to those of Hst1 in other epithelial cell types. Wounding causes an increased in phosphorylated form of ERK1/2 (p-ERK1/2). Immunolocalization was used to determine whether Hst5 application to a scratched sheet of epithelium would affect pERK1/2 levels.
In the case of YHGHRHFRKHKKHKEAHSYDRGSH [SP1], the “pERK1/2 immunolocalization / signal intensity” value is reported as “did not elicit the same increase in pERK1/2 immunolocalization”.
HSHKEGHHYKRFKRKHHADSHRGY [SP2] was tested, and the “pERK1/2 immunolocalization / signal intensity” value was “increased pERK1/2 levels to a comparable intensity to Hst5; also recorded: elevated immunolocalization of pERK1/2”.

The molecules below were run on corneal epithelial wound in C57BLl6J mice (assay: Murine corneal epithelial injury (wound healing) model). Settings: applied topically to mice injured using a standardized wounding method; summary statement.
Type: in vivo
Procedure: Wounded areas were treated with Hst5, SHRGY (SEQ ID NO:2) or SP1 peptides (n=7 for each group), each tested at 80 μM concentration. Wound areas at multiple time points were measured using Image J software. […] Statistical significance was determined by a two-way ANOVA with Bonferroni post-hoc test. **P<0.01, ***P<0.001. % Wound area=(Wound area at time X/Wound area at time 0)×100.
Wound Healing Assay. Corneal wounding experiments in mice were conducted in compliance with the Association for Research in Vision and Ophthalmology (ARVO) Statement for the Use of Animals in Ophthalmic and Vision Research. The protocol was approved by the Animal Care & Use Committee of the University of Illinois at Chicago. Twelve-to-nineteen week old C57BLl6J (Jackson Laboratory, Bar Harbor, Me.) mice were anesthetized with intraperitoneal injection of ketamine (100 mg/kg) and xylazine (5 mg/kg). After applying two drops of topical 0.5% proparacaine, a 2.0-mm area of the central epithelium was demarcated using 2-mm disposable biopsy punch and removed by an AlgerBrush II (The Alger Company, Lago Vista, Tex.). In the treatment (n=7) or the control (n=7) group, Histatin=5 (80 μM), SHRGY peptide (SEQ ID NO:2; 80 μM), or SP1 (80 μM) was applied to the cornea three times a day. At 0, 18 and 24 hours, the corneas were stained with fluorescein (FUL-GLO® Fluorescein Sodium ophthalmic strips, Akorn, Lake forest, Ill.) and photographed using a NIKON FS-2 photo-slit lamp with a NIKON D200 camera (Melville, N.Y.). Wound sizes were compared with the baseline for each mouse and the percentages of wound closure was measured using Image J software.
For immunofluorescence, excised whole mouse eye was snap frozen in optimal cutting temperature compound (OCT; (Fisher Healthcare, Galderma, Calif.). The frozen tissues were cut into 10 μm cryosections (ThermoScientific NX50 Cryomicrotome, Waltham, Mass.) and subsequently were mounted on Superfrost plus slides (Thermofisher, Waltham, Mass.). Slides were fixed for 20 minutes in methanol, washed several times with PBS, stained with DAPI for 2 minutes, and further washed with PBS and deionized water. The slides were then mounted in Fluoro gel with Tris buffer (Electron Microscopy Sciences, Hattfield, Pa.) and observed under a confocal microscope (Zeiss LSM 710 Confocal Microscope, Oberkochen, Germany) using a 10× objective.
Thus, Hst5 and SHRGY (SEQ ID NO:2)-containing peptides can enhance wound healing in a well-vetted model of murine corneal epithelial injury.
For “SHRGY-(CH2)6-SHRGY-(CH2)6-SHRGY-(CH2)6-SHRGY (SHRGY[(CH2)6]SHRGY[(CH2)6]SHRGY[(CH2)6]SHRGY) [multimer of SHRGY composed of 4 repeating units]”, the corneal healing was “significantly improve corneal healing”.
